Literature values as cited in patent publication US20120164100A1, “TEMPERATURE SENSITIVE HYDROGEL AND BLOCK COPOLYMERS” (priority 2010, published 2012).

- solubility (pH above 6, Critical Micelle Concentration): about 5 mg/mL
- half life (physiological condition): very short
SMILES: CCCCC[C@H](O)/C=C/[C@H]1[C@H](O)CC(=O)[C@@H]1C/C=C\CCCC(=O)O [PGE2, Prostaglandin E2]
